From US10865191B2, “Heterocyclic compounds useful as modulators of TNF alpha” (BRISTOL-MYERS SQUIBB COMPANY, priority 2015, dated 2020) come the findings set out here.

This assay deals with TNFα (Homo sapiens, UniProt P01375). The experiment in a line: TNF induced HEK-Blue assay (NF-kB-driven secreted alkaline phosphatase reporter). The assay is classed as cell-based. Conditions: TNFα 0.5 ng/mL, HEK-Blue-CD40L cells, 18 h; read-out: TNF induced HEK-Blue assay IC50 value. As to the method: TNF or CD40L-Induced HEK-Blue Assay
Chain of TNFα (P01375 77-233 limits assumed): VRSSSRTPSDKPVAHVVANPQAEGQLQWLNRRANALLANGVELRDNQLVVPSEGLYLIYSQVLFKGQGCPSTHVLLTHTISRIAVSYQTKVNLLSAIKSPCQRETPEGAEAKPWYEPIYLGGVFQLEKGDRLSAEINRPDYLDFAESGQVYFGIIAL
Test compounds serially diluted in DMSO were plated in an assay plate (LABCYTE, Cat. # LP-0200) at final concentrations ranging from 0.004 μM to 25 μM. TNFα (final concentration 0.5 ng/mL) or CD40L (final concentration 30 ng/mL) in assay buffer [DMEM, 4.5 g/l glucose (Gibco, Cat. 21063-029), 10% FBS (Sigma, F4135), 1% Penicillin-Streptomycin (Gibco, Cat. 15140-122), 1% Anti-Anti (Gibco, Cat. 15240-112) and 2 mM L-glutamine (Gibco, Cat. 25030-081)] was then added to the assay plate. After a 30 minute pre-incubation at 37° C. and 5% CO2, HEK-Blue™-CD40L cells (INVIVOGEN, Cat. Code hkb-cd40) containing a NF-kB-driven secreted alkaline phosphatase reporter gene were seeded into the assay plate at a density of 20,000 cells per well. This plate was then incubated for 18 h at 37° C. and 5% CO2. Secreted alkaline phosphatase expression was measured using QUANTI-Blue™ (INVIVOGEN, Cat. Code rep-qb1) according to manufacturer's specifications and the assay plate was read on a PerkinElmer Envision at 620 nm.
Inhibition data for the test compound over a range of concentrations was plotted as percentage inhibition of the test compound (100%=maximum inhibition). IC50 values were determined after correcting for background [(sample read-mean of low control)/(mean of high control-mean of low control)] where by the low control is DMSO without stimulation and high control is DMSO with stimulation. The IC50 is defined as the concentration of test compound which produces 50% inhibition and was quantified using the 4 parameter logistic equation to fit the data.

Regarding `C[C@@H](Nc1c(Cl)cnc2cc(F)c(-c3ccc(N4CCN(CC(=O)O)CC4)cc3)cc12)c1ccccc1F` [Example 280, (R)-2-(4-(4-(3-chloro-7-fluoro-4-((1-(2-fluorophenyl)ethyl)amino)quinolin-6-yl)phenyl)piperazin-1-yl)acetic acid], the concentration for half-maximal inhibition (IC50) was less than 1000 nM. On to `Cc1nc2ccc(-c3cnc(N4CCOCC4)nc3)cc2c(N[C@H](C)c2cc(C(N)=O)ccc2F)c1Cl` [Example 313, (R)-3-(1-((3-chloro-2-methyl-6-(2-morpholinopyrimidin-5-yl)quinolin-4-yl)amino)ethyl)-4-fluorobenzamide], for which the IC50 was less than 1000 nM. With `Cc1nc2ccc(-c3cnc(C(C)(C)O)nc3)cc2c(N[C@H](C)c2cc(-c3cnc(C(C)(C)O)nc3)ccc2F)c1Cl` [Example 343, (R)-2-(5-(3-chloro-4-((1-(2-fluoro-5-(2-(2-hydroxypropan-2-yl)pyrimidin-5-yl)phenyl)ethyl)amino)-2-methylquinolin-6-yl)pyrimidin-2-yl)propan-2-ol] the figure was less than 1000 nM. Turning to `C[C@@H](Nc1c(Cl)cnc2cc(F)c(-c3cnc(N4CCC(C(=O)O)C4)nc3)cc12)c1ccccc1F` (mixture of isomers) [Example 282, 1-(5-(3-chloro-7-fluoro-4-(((R)-1-(2-fluorophenyl)ethyl)amino)quinolin-6-yl)pyrimidin-2-yl)pyrrolidine-3-carboxylic acid], the IC50 was in the range of 1000 to 10000 nM. With `CC(C)(O)c1ncc(-c2cc3c(N[C@@H](c4cc(C#N)ccc4F)C(F)F)c(Cl)cnc3cc2F)cn1` [Example 381, (S)-3-(1-((3-chloro-7-fluoro-6-(2-(2-hydroxypropan-2-yl)pyrimidin-5-yl)quinolin-4-yl)amino)-2,2-difluoroethyl)-4-fluorobenzonitrile] the figure was less than 1000 nM; with `CC(C)(O)c1ncc(-c2nc3c(NC(c4ccccc4)C(F)F)c(Cl)cnc3cc2F)cn1` (racemic) [Example 212, 2-(5-(7-chloro-8-((2,2-difluoro-1-phenylethyl)amino)-3-fluoro-1,5-naphthyridin-2-yl)pyrimidin-2-yl)propan-2-ol], less than 1000 nM; with `OC[C@@H]1CN(c2ncc(-c3ccc4ncc(Cl)c(N[C@@H](c5ccccc5F)C(F)F)c4c3)cn2)CCN1` [Example 86, ((S)-4-(5-(3-chloro-4-(((S)-2,2-difluoro-1-(2-fluorophenyl)ethyl)amino)quinolin-6-yl)pyrimidin-2-yl)piperazin-2-yl)methanol], less than 1000 nM. With `CC(C)(O)c1ncc(-c2ccc3ncc(Cl)c(NC(CC(F)(F)F)c4ccccc4F)c3c2)cn1` (racemic) [Example 169, 2-(5-(3-chloro-4-((3,3,3-trifluoro-1-(2-fluorophenyl)propyl)amino)quinolin-6-yl)pyrimidin-2-yl)propan-2-ol] the figure was less than 1000 nM; with `C=Cc1ccc(F)c([C@@H](C)Nc2c(Cl)c(C)nc3ccc(-c4cnc(C(C)(C)O)nc4)cc23)c1` [Example 330, (R)-2-(5-(3-chloro-4-((1-(2-fluoro-5-vinylphenyl)ethyl)amino)-2-methylquinolin-6-yl)pyrimidin-2-yl)propan-2-ol], less than 1000 nM. For `Cc1ccc(C)c(Nc2c(Cl)c(N)nc3ccc(-c4cnc(NCCO)nc4)cc23)c1` [Example 70, 2-((5-(2-amino-3-chloro-4-((2,5-dimethylphenyl)amino)quinolin-6-yl)pyrimidin-2-yl)amino)ethan-1-ol] the value was less than 1000 nM; for `Cc1ccc(-c2ccc(F)c([C@@H](C)Nc3c(Cl)cnc4ccccc34)c2)cn1` [Example 518, (R)-3-chloro-N-(1-(2-fluoro-5-(6-methylpyridin-3-yl)phenyl)ethyl)quinolin-4-amine], less than 1000 nM; for `CNCC(O)c1ccc(-c2cc3c(NC(C)c4ccccc4F)c(Cl)cnc3cc2F)cc1` (single isomer, unassigned) [Example 600, 1-(4-(3-chloro-7-fluoro-4-((1-(2-fluorophenyl)ethyl)amino)quinolin-6-yl)phenyl)-2-(methylamino)ethan-1-ol], less than 1000 nM. On to `CCC(Nc1c(Cl)cnc2ccc(-c3cnc(C(C)(C)O)nc3)cc12)c1nc(CO)ccc1F` (centres unmarked) [Example 130, 2-(5-(3-chloro-4-((1-(3-fluoro-6-(hydroxymethyl)pyridin-2-yl)propyl)amino)quinolin-6-yl)pyrimidin-2-yl)propan-2-ol], for which the 50% inhibitory concentration (IC50) is less than 1000 nM. For `C[C@@H](Nc1c(Cl)cnc2ccc(-c3ccc(N4CCC(CC(=O)O)CC4)nc3)cc12)c1ccccc1F` [Example 82, (R)-2-(1-(5-(3-chloro-4-((1-(2-fluorophenyl)ethyl)amino)quinolin-6-yl)pyridin-2-yl)piperidin-4-yl)acetic acid] the value was less than 1000 nM; for `Cc1nc2cc(F)c(-c3cnc(C(C)(C)O)nc3)cc2c(N[C@H](C)c2cc(C(N)=O)ccc2F)c1Cl` [Example 393, (R)-3-(1-((3-chloro-7-fluoro-6-(2-(2-hydroxypropan-2-yl)pyrimidin-5-yl)-2-methylquinolin-4-yl)amino)ethyl)-4-fluorobenzamide], less than 1000 nM. For `Cc1nc2cc(F)c(-c3cnc(C(C)(C)O)nc3)nc2c(N[C@H](C)c2cccc(CO)c2)c1Cl` [Example 578, (R)-2-(5-(7-chloro-3-fluoro-8-((1-(3-(hydroxymethyl)phenyl)ethyl)amino)-6-methyl-1,5-naphthyridin-2-yl)pyrimidin-2-yl) propan-2-ol] the value was less than 1000 nM. With `C[C@@H](Nc1c(Cl)cnc2ccccc12)c1cc(-c2cnc(C(C)(C)O)nc2)ccc1F` [Example 469, (R)-2-(5-(3-(1-((3-chloroquinolin-4-yl)amino)ethyl)-4-fluorophenyl)pyrimidin-2-yl)propan-2-ol] the figure was 1000 to 10000 nM; with `COCC(C)(O)c1ncc(-c2cc3c(NC(C)c4ccccc4F)c(Cl)cnc3cc2F)cn1` (centres unmarked) [Example 293, 2-(5-(3-chloro-7-fluoro-4-((1-(2-fluorophenyl)ethyl)amino)quinolin-6-yl)pyrimidin-2-yl)-1-methoxypropan-2-ol], less than 1000 nM; with `Fc1ccc(Br)cc1[C@@H](Nc1c(Cl)cnc2ccccc12)C(F)F` [Example 510, (R)—N-(1-(5-bromo-2-fluorophenyl)-2,2-difluoroethyl)-3-chloroquinolin-4-amine], 1000 to 10000 nM. For `CC(C)(O)c1ncc(-c2ccc3ncc(Cl)c(NCc4ccccc4C(F)(F)F)c3c2)cn1` [Example 146, 2-(5-(3-chloro-4-((2-(trifluoromethyl)benzyl)amino)quinolin-6-yl)pyrimidin-2-yl)propan-2-ol], the IC50 was less than 1000 nM. For `CC(C)(O)c1ncc(-c2ccc3ncc(Cl)c(NC(C)(C)c4ccc(C(F)(F)F)cc4)c3c2)cn1` [Example 185, 2-(5-(3-chloro-4-((2-(4-(trifluoromethyl)phenyl)propan-2-yl)amino)quinolin-6-yl)pyrimidin-2-yl)propan-2-ol] the value was 10000 to 25000 nM; for `C=CCOc1ccc(F)c([C@@H](C)Nc2c(Cl)cnc3ccccc23)c1` [Example 457, (R)—N-(1-(5-(allyloxy)-2-fluorophenyl)ethyl)-3-chloroquinolin-4-amine], 1000 to 10000 nM.

Take `Cc1nc2ccc(-c3cnc(C(C)(C)O)nc3)cc2c(NC(C)c2ccccc2F)c1Cl` (racemic) [Example 218, 2-(5-(3-chloro-4-((1-(2-fluorophenyl)ethyl)amino)-2-methylquinolin-6-yl)pyrimidin-2-yl)propan-2-ol]: the IC50 was less than 1000 nM.

As a reminder, the IC50 is the midpoint of a concentration-inhibition curve.
